Here are results for 10 compounds from patent US7563913B2, “Compound and pharmaceutical composition” (Hiro International Co., Ltd., priority 2003, dated 2009).

The subject of experiment [1] is human acute myeloid leukemia cell strain HL-60. Nature of the experiment: Cytotoxic activity, MTT test on HL-60 cells. The format is cell-based. Conditions: 72 hr incubation; for IC50: Homo sapiens. How it is done: Cytostatic activity of TD-1 to 10 was studied in terms of numerical values of cytotoxic activity using human acute myeloid leukemia cell strain HL-60. The test was specifically carried out according to the following procedure.
HL-60 cells precultured in an FBS-containing RPMI 1640 medium were suspended in an FBS-containing RPMI 1640 medium so that the number of HL-60 cells is 4×10^4 per mL. The suspension was dispensed in an amount of […] for each well in a 96-well microplate, followed by preincubation in 5% carbon dioxide gas at 37° C. for 24 hr. Subsequently, EtOH-H2O(1:1) as control, and a solution of each TD compound in EtOH-H2O(1:1) as a sample were added each in an amount of […] to each well. After incubation in 5% carbon dioxide gas at 37° C. for 72 hr, an MTT reagent was added in an amount of […] to each well, and incubation was further carried out for 4 hr. The medium was removed, and MTT formazan thus produced was then dissolved in […] of DMSO. Detection was carried out at a light absorption wavelength of 550 nm with a microplate reader, and the viable cell count based on the control was calculated. IC50 values were calculated from a dose-response curve.

Experiment [2] concerns 39 types in total of human tumor cells. Briefly: Human cultured cancer cell panel screening test, average over panel. In kind it is cell-based. Conditions: 50% cell growth inhibitory concentration, average over 39 human tumor cell types. How it is done:
(§1) To examine the cytostatic activity of TD-1, a human cultured cancer cell panel screening test was carried out. Specifically, for TD-1, the human cultured cancer cell panel screening test was carried out by measuring 50% cell growth inhibitory concentration (GI50) against 39 types in total of human tumor cells according to the method described in “Gan To Kagaku Ryoho (Cancer and Chemotherapy) (Takao Yamori), 24, 129-135, 1997”.

Experiment [3] deals with OVCAR-3 ovarian cancer cell line. Briefly: Human cultured cancer cell panel screening test, OVCAR-3. In kind it is cell-based. How it is done:
as §1

In experiment [4] the test system is OVCAR-4 ovarian cancer cell line. Nature of the experiment: Human cultured cancer cell panel screening test, OVCAR-4. In kind it is cell-based. How it is done: as §1
The test system of experiment [5] is OVCAR-5 ovarian cancer cell line. Nature of the experiment: Human cultured cancer cell panel screening test, OVCAR-5. The format is cell-based. How it is done:
as §1

The subject of experiment [6] is OVCAR-8 ovarian cancer cell line. Briefly: Human cultured cancer cell panel screening test, OVCAR-8. In kind it is cell-based. How it is done: as §1
Experiment [7] relates to SK-OV-3 ovarian cancer cell line. Briefly: Human cultured cancer cell panel screening test, SK-OV-3. In kind it is cell-based. How it is done: as §1
For experiment [8], the system named is DU-145 prostatic cancer cell line. Briefly: Human cultured cancer cell panel screening test, DU-145. In kind it is cell-based. How it is done: as §1
The test system of experiment [9] is PC-3 prostatic cancer cell line. Briefly: Human cultured cancer cell panel screening test, PC-3. In kind it is cell-based. How it is done:
as §1

Another experiment relates to P388 mouse leukemia. Conditions: mice with P388 mouse leukemia intraperitoneally transplanted; Pal et al. 1976; cited from earlier work.

In brackets after ≈: the same amount, converted by molar mass.

As to `C=C1C(=O)O[C@@H]2C=C(C)[C@@]3(OC)C[C@@H](OC)[C@@](C)(C[C@@H](OC(=O)C(C)C)[C@@H]12)O3` [TD-1, (1R,3R,6R,7R,8R,10R)-1,3-dimethoxy-3,10-epoxy-8-isobutyryloxygermacra-4,11(13)-dien-6,12-olide], the IC50 value result in experiment [1] was “(0.60) μg/mL”. Besides, the 50% growth inhibitory concentration (GI50) was 6.8 µM in experiment [2]; 3.3 µM in experiment [3]; 5.6 µM in experiment [4]; 2.9 µM in experiment [5]; 3.6 µM in [6]; 4 µM in [7]. The GI50 is 4.2 µM in experiment [8] and 3.3 µM in experiment [9].
`C=C1C(=O)OC2/C=C(/C)C(=O)/C=C/C(C)(O)CC(OC(=O)C(C)C)C12` [TD-2, (6S,7R,8R,10R)-10-hydroxy-3-oxo-8-isobutyryloxygermacra-1,4,11(13)-trien-6,12-olide] returned an IC50 in [1] of 0.38 µg/mL (≈ 1.09 µM).
Consider `C=C1C(=O)O[C@@H]2C[C@H](C)[C@@]3(OC)C[C@H](O)[C@@](C)(C[C@@H](OC(=O)C(C)C)[C@@H]12)O3` [TD-3, (1S,3R,4S,6R,7S,8R,10R)-1-hydroxy-3-methoxy-3,10-epoxy-8-isobutyryloxygermacra-11(13)-en-6,12-olide], for which the IC50 value result in experiment [1] is recorded as “(4.97) μg/mL”.
Turning to `C=C1C(=O)O[C@@H]2C=C(C)[C@@]3(O)C[C@@H](OC)[C@@](C)(C[C@@H](OC(=O)C(C)C)[C@@H]12)O3` [TD-4, (1R,3R,6R,7R,8R,10R)-3-hydroxy-1-methoxy-3,10-epoxy-8-isobutyryloxygermacra-4,11(13)-dien-6,12-olide], the IC50 value result in experiment [1] is given as “(0.05) μg/mL”.
On to `C=C1C(=O)O[C@@H]2C=C(C)[C@@]3(OC)C[C@H](O)[C@@](C)(C[C@@H](OC(=O)C(C)C)[C@@H]12)O3` [TD-6, (1 S,3R,6R,7R, 8R,10R)-1-hydroxy-3-methoxy-3,10-epoxy-8-isobutyryloxygermacra-4,11(13)-dien-6,12-olide], for which, in experiment [1], the IC50 value result is on record as “(2.50) μg/mL”.
On the same count and under the same terms, next, `C=C1C(=O)O[C@@H]2C[C@H](C)[C@@]3(O)C[C@H](O)[C@@](C)(C[C@@H](OC(=O)C(C)C)[C@@H]12)O3` [TD-7, (1S,3R,4S,6R,7S,8R,10R)-1,3-dihydroxy-3,10-epoxy-8-isobutyryloxygermacra-11(13)-en-6,12-olide]: “(3.87) μg/mL”.
In the case of `C=C1C(=O)OC2/C=C(/C)C(O)CC3OC3(C)CC(OC(=O)C(C)C)C12` [TD-8, (1R,3S,6S,7R,8R,10R)-3-hydroxy-1,10-epoxy-8-isobutyrylgermacra-4,11(13)-dien-6,12-olide], the 50% inhibitory concentration (IC50) in experiment [1] was 0.92 µg/mL (≈ 2.63 µM).
As for `C=C1C(=O)O[C@@H]2C[C@H](C)[C@@]3(O)CC[C@@](C)(C[C@@H](OC(=O)C(C)C)[C@@H]12)O3` [TD-9, (3R,4S,6R,7S,8R,10S)-3-hydroxy-3,10-epoxy-8-isobutyryloxygermacra-11 (13)-en-6,12-olide], the IC50 value entry in experiment [1] is given as “(2.50) μg/mL”.
Still for that read-out and setting: with `C=C1C(=O)O[C@@H]2C[C@H](C)[C@@]3(OC)CC[C@@](C)(C[C@@H](OC(=O)C(C)C)[C@@H]12)O3` [TD-10, (3R,4S,6R,7S,8R,10S)-3-methoxy-3,10-epoxy-8-isobutyryloxygermacra-11(13)-en-6,12-olide] the entry was “(0.78) μg/mL”.
In the case of `C=C1C(=O)O[C@H]2/C=C(/C)[C@@]3(O)C=C[C@@](C)(C[C@@H](OC(=O)C(C)C)[C@@H]12)O3` [TD-11, (3R,6R,7R,8R,10R)-3-hydroxy-3,10-epoxy-8-isobutyryloxygermacra-1,4,11(13)-trien-6,12-olide], the “effect of prolonging the life span of mice” value in the experiment on P388 mouse leukemia is on record as “had the effect of prolonging the life span of mice”.
